# Results taken from patent US7586003B2, “Derivatives of seleno-amino acids” (Zinpro Corporation, priority 2005, dated 2009).
# Experiments:
# [1] = Stability compared with parent seleno-amino acid
# [2] = Solubility in water; details: in words; partly relative to parent seleno-amino acid
# [3] = Tissue selenium content of lactating cows fed selenium premixes (milk serum, plasma, liver, whole blood); type: in vivo; details: for Liver Se / Milk Serum Se / Plasma Se / Whole Blood Se: female, cow
# Method: (§1) Three premixes were prepared for use in a field study in lactating cows. One of the premixes contained no additional source of selenium and was intended to serve as the placebo. The second contained sodium selenite and the third contained N-Succinyl L-Selenomethionine (Compound 2). Each of the premixes was prepared by mixing an amount of the selenium source with sufficient amount of finely ground sugar to contain 250 ppm of selenium. Each premix was color identified by the incorporation of a solution of a food color during formulation and given a letter designation by random selection. […] This was done to avoid any possible biases in the interpretation of the results of the feeding experiments. Thirty lactating cows were fed one of the three premixes as a daily topdress. The effect of these selenium sources on tissue selenium content and whole blood glutathione peroxidase activity were determined. All cows were fed a total mixed diet devoid of added selenium for an initial 8-week depletion period. Daily rations were topdressed with an amount of the premix to provide 7.5 mg selenium. Treatments were continued for 8-week followed by a 4-week depletion period. Milk samples were collected on one day per week beginning the week prior to the first depletion period (Week 0) and continuing through the 20 weeks of the experiment. The selenium content of the milk serum obtained after the samples were defatted was determined. Blood samples were collected on one day per week beginning the week prior to the first depletion period (Week 0) and at four week intervals throughout the experiment (Weeks 8, 12, 16 and 20 in Table 1). The blood samples were draw into trace-element free vacutainer tubes containing an anticoagulant. Aliquots of whole blood were analyzed for selenium and glutathione peroxidase activity. Other aliquots of blood were centrifuged to harvest plasma and the selenium content of the plasma samples was determined. Liver samples were obtained by biopsy on one day per week beginning the week prior to the first depletion period (Week 0) and at four week intervals throughout the experiment (Weeks 8, 12, 16 and 20 in Table 1). Liver samples were analyzed for selenium content. […] The dramatic changes in the selenium concentrations in response to changes in dietary intake of selenium indicate that these tissues are sensitive indicators of the dietary selenium status of the lactating cows. […] The changes in the selenium concentration and glutathione peroxidase activity (GPX) in whole blood in response to changing dietary selenium intake were less sensitive than those in milk serum, plasma and liver.
# [4] = system: glutathione peroxidase; experiment: Whole-blood glutathione peroxidase activity of lactating cows fed selenium premixes; type: in vivo
# Method: as §1
# [5] = Wk 0, before first depletion period
# [6] = Wk 8, end of 8-week depletion, before treatment
# [7] = Wk 12, 4 weeks of topdress providing 7.5 mg selenium daily
# [8] = Wk 16, 8 weeks of topdress providing 7.5 mg selenium daily
# [9] = Wk 20, end of 4-week second depletion
smiles,measurement,setting,value
"C[Se]CC[C@H](N)C(=O)OC(C)C.Cl [Compound 1, L-Selenomethionine Isopropyl Ester Hydrochloride]",Stability relative to L-selenomethionine,[1]; in the solid state and in solution,significantly more stable than L-selenomethionine
same,Solubility in water,[2],readily soluble in water
"C[Se]CC[C@H](NC(=O)CCC(=O)O)C(=O)O [Compound 2, (S)-4-(1-carboxy-3-(methylselanyl)propylamino)-4-oxobutanoic Acid]",Liver Se,"[3]; in vivo, 0 week of experiment",1151 ng/g dry wt.
same,Milk Serum Se,"[3]; in vivo, 0 week of experiment",14.96 ng/mL
same,Plasma Se,"[3]; in vivo, 0 week of experiment",63.5 ng/mL
same,Whole Blood Se,"[3]; in vivo, 0 week of experiment",144.0 ng/mL
same,Liver Se,"[3]; in vivo, 8 week of experiment",690 ng/g dry wt.
same,Milk Serum Se,"[3]; in vivo, 8 week of experiment",4.30 ng/mL
same,Plasma Se,"[3]; in vivo, 8 week of experiment",43.6 ng/mL
same,Whole Blood Se,"[3]; in vivo, 8 week of experiment",136.3 ng/mL
same,Liver Se,"[3]; in vivo, 20 week of experiment",1003 ng/g dry wt.
same,Milk Serum Se,"[3]; in vivo, 20 week of experiment",10.91 ng/mL
same,Plasma Se,"[3]; in vivo, 20 week of experiment",52.2 ng/mL
same,Whole Blood Se,"[3]; in vivo, 20 week of experiment",112.1 ng/mL
same,Bioavailability as source of dietary selenium,[3]; in vivo,more bioavailable source of dietary selenium than sodium selenite
same,Whole Blood GPX,[4]; [5],18.2 EU/ml
same,Whole Blood GPX,[4]; [6],19.2 EU/ml
same,Whole Blood GPX,[4]; [7],18.7 EU/ml
same,Whole Blood GPX,[4]; [8],17.5 EU/ml
same,Whole Blood GPX,[4]; [9],19.8 EU/ml
"C[Se]CC[C@H](NC(N)=O)C(=O)O [Compound 3, N-Carbamoyl L-Selenomethionine]",Stability of the solution relative to parent seleno-amino acid,[1]; solution in water,appears to be more stable than the parent seleno-amino acid
same,Solubility in water,[2],more soluble in water
"C[Se]CC[C@@H]1NC(=O)NC1=O [Compound 4, (S)-5-(2-(methylselanyl)ethyl)midazolidine-2,4-dione]",Stability relative to parent seleno-amino acid,[1],appears to be more stable than the parent seleno-amino acid
same,Solubility in water,[2],less soluble
"O=[Se](O)O [Sodium Selenite, reference compound]","Change of selenium concentrations in milk serum, plasma and liver on supplemented diet","[3]; Wk12 & Wk 16, 7.5 mg selenium daily",progressive and significant increases
same,Whole Blood GPX,[4]; [5],17.3 EU/ml
same,Whole Blood GPX,[4]; [6],17.9 EU/ml
same,Whole Blood GPX,[4]; [7],17.6 EU/ml
same,Whole Blood GPX,[4]; [8],16.1 EU/ml
same,Whole Blood GPX,[4]; [9],17.9 EU/ml
